# Test results reported in patent US12404279B2, “Deubiquitinase inhibitors and methods of use thereof” (Molecure S.A., priority 2021, dated 2025).
# Counter-ions that a name gives are not always drawn.
# Target: full-length USP7 (Homo sapiens (Human), UniProt Q93009)
# Assay: Enzymatic assay to determine IC50 of USP7 inhibitors (Ubiquitin-Rhodamine 110 cleavage)
# Assay type: biochemical
# Conditions: for IC50: 0.5 nM USP7, 0.5 μM Ubiquitin-Rhodamine 110, 45 min at 37° C.; for inhibition at 1 µM: at 1 μM of the test compound, given where IC50 not determined yet, read-out: percent value of inhibition of USP7 activity
# How it was run: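 Enzyme: 0.5 nM full-length USP7 in HEPES pH 7.5 buffer with NaCl, DTT, BSA and Tween20, given 15 min at room temperature with DTT before compounds were added.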
# Chain of full-length USP7 (Q93009 whole entry): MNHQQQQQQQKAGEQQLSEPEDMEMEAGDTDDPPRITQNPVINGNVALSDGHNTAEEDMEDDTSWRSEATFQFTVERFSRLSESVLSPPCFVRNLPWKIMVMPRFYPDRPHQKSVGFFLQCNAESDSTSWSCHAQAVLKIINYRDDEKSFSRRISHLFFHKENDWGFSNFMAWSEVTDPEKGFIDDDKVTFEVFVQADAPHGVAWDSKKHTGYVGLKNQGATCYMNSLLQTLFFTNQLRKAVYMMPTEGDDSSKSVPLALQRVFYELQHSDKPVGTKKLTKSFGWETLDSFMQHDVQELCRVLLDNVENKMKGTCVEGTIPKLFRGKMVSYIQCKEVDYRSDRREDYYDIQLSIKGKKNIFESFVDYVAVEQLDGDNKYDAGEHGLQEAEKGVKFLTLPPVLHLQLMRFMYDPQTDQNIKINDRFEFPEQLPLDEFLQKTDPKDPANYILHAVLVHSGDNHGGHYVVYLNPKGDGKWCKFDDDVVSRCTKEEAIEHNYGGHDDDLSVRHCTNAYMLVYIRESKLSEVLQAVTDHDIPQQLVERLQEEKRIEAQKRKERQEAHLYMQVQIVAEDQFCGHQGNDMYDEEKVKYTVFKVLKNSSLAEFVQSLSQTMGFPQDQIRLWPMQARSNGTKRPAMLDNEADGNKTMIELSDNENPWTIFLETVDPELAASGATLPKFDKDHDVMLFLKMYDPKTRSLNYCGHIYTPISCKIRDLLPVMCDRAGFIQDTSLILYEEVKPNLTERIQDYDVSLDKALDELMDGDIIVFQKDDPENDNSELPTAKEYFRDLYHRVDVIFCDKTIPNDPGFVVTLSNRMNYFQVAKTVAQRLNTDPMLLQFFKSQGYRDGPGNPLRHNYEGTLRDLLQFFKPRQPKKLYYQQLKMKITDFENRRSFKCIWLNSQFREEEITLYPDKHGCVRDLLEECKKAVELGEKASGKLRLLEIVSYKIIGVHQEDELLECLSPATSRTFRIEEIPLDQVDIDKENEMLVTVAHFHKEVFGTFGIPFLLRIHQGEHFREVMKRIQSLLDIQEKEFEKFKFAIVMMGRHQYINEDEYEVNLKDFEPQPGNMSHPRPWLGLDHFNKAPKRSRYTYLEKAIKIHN
SMILES,IC50 [µM],inhibition at 1 µM [%]
"Cc1cc(C#N)nc(-c2ccnc3cc(CN4C(=O)C5C(C4=O)C5(C)C)sc23)c1C(=O)N1CCOCC1 (stereo not drawn) [Example 58, 6-(2-((6,6-dimethyl-2,4-dioxo-3-azabicyclo[3.1.0]hexan-3-yl)methyl)thieno[3,2-b]pyridin-7-yl)-4-methyl-5-(morpholine-4-carbonyl)picolinonitrile hydrochloride]",0.5 to 1,
"Cc1cc(C#N)nc(-c2ccnc3cc(CN4C(=O)C5C(C4=O)C5(C)C)sc23)c1C(=O)N1CCC(F)(F)C1 (stereo not drawn) [Example 59, 5-(3,3-difluoropyrrolidine-1-carbonyl)-6-(2-((6,6-dimethyl-2,4-dioxo-3-azabicyclo[3.1.0]hexan-3-yl)methyl)thieno[3,2-b]pyridin-7-yl)-4-methylpicolinonitrile hydrochloride]",< 0.5,
"CNCC(=O)Nc1c(-c2ccnc3cc(CN4C(=O)C5C(C4=O)C5(C)C)sc23)cc(C(F)(F)F)nc1C (stereo not drawn) [Example 60, N-(4-(2-((6,6-dimethyl-2,4-dioxo-3-azabicyclo[3.1.0]hexan-3-yl)methyl)thieno[3,2-b]pyridin-7-yl)-2-methyl-6-(trifluoromethyl)pyridin-3-yl)-2-(methylamino)acetamide 2,2,2-trifluoroacetate]",> 10,
"COCC(=O)Nc1c(-c2ccnc3cc(CN4C(=O)C5C(C4=O)C5(C)C)sc23)cc(C(F)(F)F)nc1C (stereo not drawn) [Example 61, N-(4-(2-((6,6-dimethyl-2,4-dioxo-3-azabicyclo[3.1.0]hexan-3-yl)methyl)thieno[3,2-b]pyridin-7-yl)-2-methyl-6-(trifluoromethyl)pyridin-3-yl)-2-methoxyacetamide 2,2,2-trifluoroacetate]",> 10,
"Cc1nc(C(F)(F)F)cc(-c2ccnc3cc(CN4C(=O)C5C(C4=O)C5(C)C)sc23)c1NC(=O)C(F)(F)F (stereo not drawn) [Example 62, N-(4-(2-((6,6-dimethyl-2,4-dioxo-3-azabicyclo[3.1.0]hexan-3-yl)methyl)thieno[3,2-b]pyridin-7-yl)-2-methyl-6-(trifluoromethyl)pyridin-3-yl)-2,2,2-trifluoroacetamide 2,2,2-trifluoroacetate]",1 to 10,
"Cc1nc(C(F)(F)F)cc(-c2ccnc3cc(CN4C(=O)C5C(C4=O)C5(C)C)sc23)c1NC(=O)c1cccnc1 (stereo not drawn) [Example 63, N-(4-(2-((6,6-dimethyl-2,4-dioxo-3-azabicyclo[3.1.0]hexan-3-yl)methyl)thieno[3,2-b]pyridin-7-yl)-2-methyl-6-(trifluoromethyl)pyridin-3-yl)nicotinamide 2,2,2-trifluoroacetate]",> 10,
"Cc1nc(C(F)(F)F)cc(-c2ccnc3cc(CN4C(=O)C5C(C4=O)C5(C)C)sc23)c1NC(=O)C1CNC1 (stereo not drawn) [Example 66, N-(4-(2-((6,6-dimethyl-2,4-dioxo-3-azabicyclo[3.1.0]hexan-3-yl)methyl)thieno[3,2-b]pyridin-7-yl)-2-methyl-6-(trifluoromethyl)pyridin-3-yl)azetidine-3-carboxamide 2,2,2-trifluoroacetate]",1 to 10,
"Cc1nc2c(-c3cc(Cl)cc(C)c3O[C@H]3CCCNC3)ccnc2[nH]1 [Example 67, (S)-7-(5-chloro-3-methyl-2-(piperidin-3-yloxy)phenyl)-2-methyl-3H-imidazo[4,5-b]pyridine hydrochloride]",,< 20
"Cc1cc(Cl)cc(-c2ccnc3c2nc(C)n3C)c1O[C@H]1CCCNC1 [Example 68, (S)-7-(5-chloro-3-methyl-2-(piperidin-3-yloxy)phenyl)-2,3-dimethyl-3H-imidazo[4,5-b]pyridine hydrochloride]",,< 20
"Cc1cc(Cl)cc(-c2ccnc3nc(C)n(C)c23)c1O[C@H]1CCCNC1 [Example 69, (S)-7-(5-chloro-3-methyl-2-(piperidin-3-yloxy)phenyl)-1,2-dimethyl-1H-imidazo[4,5-b]pyridine hydrochloride]",,< 20
"Cc1cc(C(F)(F)F)nc(-c2ccnc3cc(CN4C(=O)C5C(C4=O)C5(C)C)sc23)c1C(=O)NC1CNC1 (stereo not drawn) [Example 70, N-(azetidin-3-yl)-2-(2-((6,6-dimethyl-2,4-dioxo-3-azabicyclo[3.1.0]hexan-3-yl)methyl)thieno[3,2-b]pyridin-7-yl)-4-methyl-6-(trifluoromethyl)nicotinamide dihydrochloride]",0.5 to 1,
"Cc1cc(C(F)(F)F)nc(-c2ccnc3cc(CN4C(=O)C5C(C4=O)C5(C)C)sc23)c1C(=O)N1CCC2(CCCN2)C1 (stereo not drawn) [Example 71, 6,6-dimethyl-3-((7-(4-methyl-3-(1,7-diazaspiro[4.4]nonane-7-carbonyl)-6-(trifluoromethyl)pyridin-2-yl)thieno[3,2-b]pyridin-2-yl)methyl)-3-azabicyclo[3.1.0]hexane-2,4-dione dihydrochloride]",< 0.5,
"CCN[C@H]1CCN(C(=O)c2c(C)cc(C(F)(F)F)nc2-c2ccnc3cc(CN4C(=O)C5C(C4=O)C5(C)C)sc23)C1 (stereo partly drawn) [Example 73, 3-((7-(3-((S)-3-(ethylamino)pyrrolidine-1-carbonyl)-4-methyl-6-(trifluoromethyl)pyridin-2-yl)thieno[3,2-b]pyridin-2-yl)methyl)-6,6-dimethyl-3-azabicyclo[3.1.0]hexane-2,4-dione dihydrochloride]",< 0.5,
"Cc1cc(C(F)(F)F)nc(-c2ccnc3cc(CN4C(=O)C5C(C4=O)C5(C)C)sc23)c1C(=O)N1CC[C@H](NC(C)C)C1 (stereo partly drawn) [Example 74, 3-((7-(3-((S)-3-(isopropylamino)pyrrolidine-1-carbonyl)-4-methyl-6-(trifluoromethyl)pyridin-2-yl)thieno[3,2-b]pyridin-2-yl)methyl)-6,6-dimethyl-3-azabicyclo[3.1.0]hexane-2,4-dione dihydrochloride]",< 0.5,
"Cc1cc(C(F)(F)F)nc(-c2ccnc3cc(CN4C(=O)C5C(C4=O)C5(C)C)sc23)c1C(=O)N[C@H]1CCNC1 (stereo partly drawn) [Example 75, 2-(2-((6,6-dimethyl-2,4-dioxo-3-azabicyclo[3.1.0]hexan-3-yl)methyl)thieno[3,2-b]pyridin-7-yl)-4-methyl-N—((S)-pyrrolidin-3-yl)-6-(trifluoromethyl)nicotinamide dihydrochloride]",1 to 10,
"Cc1cc(C(F)(F)F)nc(-c2ccnc3cc(CN4C(=O)C5C(C4=O)C5(C)C)sc23)c1C(=O)N1CCNCC1 (stereo not drawn) [Example 76, 6,6-dimethyl-3-((7-(4-methyl-3-(piperazine-1-carbonyl)-6-(trifluoromethyl)pyridin-2-yl)thieno[3,2-b]pyridin-2-yl)methyl)-3-azabicyclo[3.1.0]hexane-2,4-dione dihydrochloride]",< 0.5,
"Cc1cc(C(F)(F)F)nc(-c2ccnc3cc(CN4C(=O)C5C(C4=O)C5(C)C)sc23)c1C(=O)N1CCNC[C@@H]1C (stereo partly drawn) [Example 78, 6,6-dimethyl-3-((7-(4-methyl-3-((S)-2-methylpiperazine-1-carbonyl)-6-(trifluoromethyl)pyridin-2-yl)thieno[3,2-b]pyridin-2-yl)methyl)-3-azabicyclo[3.1.0]hexane-2,4-dione dihydrochloride]",< 0.5,
"Cc1cc(C(F)(F)F)nc(-c2ccnc3cc(CN4C(=O)C5C(C4=O)C5(C)C)sc23)c1C(=O)N1CCN(C)C[C@@H]1C (stereo partly drawn) [Example 79, 3-((7-(3-((S)-2,4-dimethylpiperazine-1-carbonyl)-4-methyl-6-(trifluoromethyl)pyridin-2-yl)thieno[3,2-b]pyridin-2-yl)methyl)-6,6-dimethyl-3-azabicyclo[3.1.0]hexane-2,4-dione hydrochloride]",< 0.5,
"Cc1cc(C(F)(F)F)nc(-c2ccnc3cc(CN4C(=O)C5C(C4=O)C5(C)C)sc23)c1C(=O)N1CCN(C)CC1 (stereo not drawn) [Example 80, 6,6-dimethyl-3-((7-(4-methyl-3-(4-methylpiperazine-1-carbonyl)-6-(trifluoromethyl)pyridin-2-yl)thieno[3,2-b]pyridin-2-yl)methyl)-3-azabicyclo[3.1.0]hexane-2,4-dione dihydrochloride]",< 0.5,
"Cc1cc(C(F)(F)F)nc(-c2ccnc3cc(CN4C(=O)C5C(C4=O)C5(C)C)sc23)c1C(=O)N1CCC(F)(F)C1 (stereo not drawn) [Example 83, 3-((7-(3-(3,3-difluoropyrrolidine-1-carbonyl)-4-methyl-6-(trifluoromethyl)pyridin-2-yl)thieno[3,2-b]pyridin-2-yl)methyl)-6,6-dimethyl-3-azabicyclo[3.1.0]hexane-2,4-dione hydrochloride]",< 0.5,
"Cc1cc(C(F)(F)F)nc(-c2ccnc3cc(CN4C(=O)C5C(C4=O)C5(C)C)sc23)c1C(=O)N1CCOCC1 (stereo not drawn) [Example 84, 6,6-dimethyl-3-((7-(4-methyl-3-(morpholine-4-carbonyl)-6-(trifluoromethyl)pyridin-2-yl)thieno[3,2-b]pyridin-2-yl)methyl)-3-azabicyclo[3.1.0]hexane-2,4-dione hydrochloride]",0.5 to 1,
"Cc1nc(C(F)(F)F)cc(-c2ccnc3cc(CN4C(=O)C5C(C4=O)C5(C)C)sc23)c1NC(=O)C1CC(F)(F)C1 (stereo not drawn) [Example 86, N-(4-(2-((6,6-dimethyl-2,4-dioxo-3-azabicyclo[3.1.0]hexan-3-yl)methyl)thieno[3,2-b]pyridin-7-yl)-2-methyl-6-(trifluoromethyl)pyridin-3-yl)-3,3-difluorocyclobutane-1-carboxamide hydrochloride]",> 10,
"Cc1nc(C(F)(F)F)cc(-c2ccnc3cc(CN4C(=O)C5C(C4=O)C5(C)C)sc23)c1NC(=O)C1CCNCC1 (stereo not drawn) [Example 87, N-(4-(2-((6,6-dimethyl-2,4-dioxo-3-azabicyclo[3.1.0]hexan-3-yl)methyl)thieno[3,2-b]pyridin-7-yl)-2-methyl-6-(trifluoromethyl)pyridin-3-yl)piperidine-4-carboxamide hydrochloride]",1 to 10,
"Cc1nc(C(F)(F)F)cc(-c2ccnc3cc(CN4C(=O)C5C(C4=O)C5(C)C)sc23)c1CC1CCNC1 (stereo not drawn) [Example 89, 6,6-dimethyl-3-((7-(2-methyl-3-(pyrrolidin-3-ylmethyl)-6-(trifluoromethyl)pyridin-4-yl)thieno[3,2-b]pyridin-2-yl)methyl)-3-azabicyclo[3.1.0]hexane-2,4-dione hydrochloride]",< 0.5,
